The results in this text go back to patent US20250161216A1, “CATIONIC LIPID ANALOGUES, COMPOSITIONS AND USES THEREOF” (GUANGZHOU LIDE BIOMEDICINE TECHNOLOGY CO., LTD., priority 2022, published 2025).

The subject of the first assay is C57BL/6 mice. The assay can be described thus: In vivo expression level of Luciferase-mRNA delivered by intravenous injection (bioluminescence imaging). The following applies: mRNA-loaded nanoparticles, compounds of Example 1; intravenous (tail vein), 5 μg Luciferase-mRNA, 6 hours. As for the experimental part:
Luciferase-mRNA was used as an mRNA model; and the cationic lipid analogues of Examples 1-5 were used to prepare drug-loaded nanoparticles according to the method of Example 6.
200 μL of nanoparticles containing 5 μg Luciferase-mRNA or the drug-loaded nanoparticles prepared above were injected into tail veins of 6-8 week-old C57BL/6 mice, and 200 μL of 1×PBS solution containing 3 mg D-Luciferin potassium salt was intraperitoneally injected into the mice 6 hours later. After waiting for 10 minutes, an in vivo expression level of the mRNA was evaluated by bioluminescence imaging.
For the compound `CCCCCCCC/C=C\CCCCCCCC(=O)N(CCN(C)C)C(C(=O)NCCCCCCCCCCCCCCCCCC)C(C)C` (stereo not shown) [A1I18R1C18-1], the “Fluorescence intensity of liver” value is on record as 5.08E+05.
Same read-out and setting: the result for `CCCCC/C=C\C/C=C\CCCCCCCC(=O)N(CCN(C)C)C(C(=O)NCCCCCCCCCCCCCCCCCC)C(C)C` (stereo not shown) [A1I18R1C18-2] reads 2.27E+05; that for `CC/C=C\C/C=C\C/C=C\CCCCCCCC(=O)N(CCN(C)C)C(C(=O)NCCCCCCCCCCCCCCCCCC)C(C)C` (stereo not shown) [A1I18R1C18-3], 1.88E+06; that for `CCCCCCCCCCCCCCCCCCNC(=O)C(C(C)C)N(CCN(C)C)C(=O)CCCCCCCCCCCCCCCCC` (stereo not shown) [A1I18R1C18], 6.37E+03.
The same measure, in the same setting: the result for `CCCCCCCCCCCCC#CC#CCCCCCCCCC(=O)N(CCN(C)C)C(C(=O)NCCCCCCCCCCCCCCCCCC)C(C)C` (stereo not shown) [A1I18R1C23] reads 9.51E+05; that for `CCCCCCCC/C=C\CCCCCCCC(=O)N(CCCN(C)C)C(C(=O)NCCCCCCCCCCCCCCCCCC)C(C)C` (stereo not shown) [A1I18R2C18-1], 2.63E+04.
Still for that read-out and setting: for `CC/C=C\C/C=C\C/C=C\CCCCCCCC(=O)N(CCCN(C)C)C(C(=O)NCCCCCCCCCCCCCCCCCC)C(C)C` (stereo not shown) [A1I18R2C18-3] the value was 6.77E+04; for `CCCCCCCCCCCCC#CC#CCCCCCCCCC(=O)N(CCCN(C)C)C(C(=O)NCCCCCCCCCCCCCCCCCC)C(C)C` (stereo not shown) [A1I18R2C23], 2.70E+05; for `CCCCCCCC/C=C\CCCCCCCC(=O)N(CCCN(CC)CC)C(C(=O)NCCCCCCCCCCCCCCCCCC)C(C)C` (stereo not shown) [A1I18R3C18-1], 9.29E+03.
With `CCCCC/C=C\C/C=C\CCCCCCCC(=O)N(CCCN(CC)CC)C(C(=O)NCCCCCCCCCCCCCCCCCC)C(C)C` (stereo not shown) [A1I18R3C18-2], the “Fluorescence intensity of liver” value is 1.48E+05.
Still for that read-out and setting: for `CC/C=C\C/C=C\C/C=C\CCCCCCCC(=O)N(CCCN(CC)CC)C(C(=O)NCCCCCCCCCCCCCCCCCC)C(C)C` (stereo not shown) [A1I18R3C18-3] the value was 2.22E+04; for `CCCCCCCCCCCCCCCCCCNC(=O)C(C(C)C)N(CCCN(CC)CC)C(=O)CCCCCCCCCCCCCCCCC` (stereo not shown) [A1I18R3C18], 3.91E+03.
On the same count and under the same terms, for `CCCCCCCCCCCCC#CC#CCCCCCCCCC(=O)N(CCCN(CC)CC)C(C(=O)NCCCCCCCCCCCCCCCCCC)C(C)C` (stereo not shown) [A1I18R3C23] the value was 7.67E+04.

The same assay, now with this note: mRNA-loaded nanoparticles, compounds of Example 2; intravenous (tail vein), 5 μg Luciferase-mRNA, 6 hours.
As to `CCCCCCCC/C=C\CCCCCCCC(=O)N(CCCN(C)C)C(C(=O)NCCN(C)CCNC(=O)C(C(C)C)N(CCCN(C)C)C(=O)CCCCCCC/C=C\CCCCCCCC)C(C)C` (stereo not shown) [A1I4R2C18-1], the Bioluminescence intensity was 8.80E+02.
On to `CCCCC/C=C\C/C=C\CCCCCCCC(=O)N(CCCN(C)C)C(C(=O)NCCN(C)CCNC(=O)C(C(C)C)N(CCCN(C)C)C(=O)CCCCCCC/C=C\C/C=C\CCCCC)C(C)C` (stereo not shown) [A1I4R2C18-2], for which the “Fluorescence intensity of spleen” value is on record as 3.18E+03.
Same read-out and setting: the result for `CCCCCCCCCCCCCCCCCC(=O)N(CCCN(C)C)C(C(=O)NCCN(C)CCNC(=O)C(C(C)C)N(CCCN(C)C)C(=O)CCCCCCCCCCCCCCCCC)C(C)C` (stereo not shown) [A1I4R2C18] reads 1.79E+04; that for `CCCCCCCC/C=C\CCCCCCCC(=O)N(CCN1CCCCCC1)C(C(=O)NCCN(C)CCNC(=O)C(C(C)C)N(CCN1CCCCCC1)C(=O)CCCCCCC/C=C\CCCCCCCC)C(C)C` (stereo not shown) [A1I4R13C18-1], 2.67E+03; that for `CCCCC/C=C\C/C=C\CCCCCCCC(=O)N(CCN1CCCCCC1)C(C(=O)NCCN(C)CCNC(=O)C(C(C)C)N(CCN1CCCCCC1)C(=O)CCCCCCC/C=C\C/C=C\CCCCC)C(C)C` (stereo not shown) [A1I4R13C18-2], 2.85E+04.
With `CCCCCCCCCCCCCCCCCC(=O)N(CCN1CCCCCC1)C(C(=O)NCCN(C)CCNC(=O)C(C(C)C)N(CCN1CCCCCC1)C(=O)CCCCCCCCCCCCCCCCC)C(C)C` (stereo not shown) [A1I4R13C18], the Bioluminescence intensity was 5.76E+02.
Regarding `CCCCCCCCCCCCCCCCCC(=O)N(CCC)C(C(=O)NCCN(C)CCNC(=O)C(C(C)C)N(CCC)C(=O)CCCCCCCCCCCCCCCCC)C(C)C` (stereo not shown) [A1I4R21C18], the “Fluorescence intensity of spleen” value was 3.46E+04.
The same measure, in the same setting: for `CCCCCCCCCCCC(=O)N(CCO)C(C(=O)NCCN(C)CCNC(=O)C(C(C)C)N(CCO)C(=O)CCCCCCCCCCC)C(C)C` (stereo not shown) [A1I4R22C12] the value was 3.90E+03; for `CCCCCCCCCCCCCC(=O)N(CCO)C(C(=O)NCCN(C)CCNC(=O)C(C(C)C)N(CCO)C(=O)CCCCCCCCCCCCC)C(C)C` (stereo not shown) [A1I4R22C14], 2.30E+03.
Take `CCCCCCCCCCCCCCCC(=O)N(CCO)C(C(=O)NCCN(C)CCNC(=O)C(C(C)C)N(CCO)C(=O)CCCCCCCCCCCCCCC)C(C)C` (stereo not shown) [A1I4R22C16]: the “Fluorescence intensity of spleen” value is 2.30E+03.
On the same count and under the same terms, the result for `CCCCCCCCCCCCCCCCCC(=O)N(CCO)C(C(=O)NCCN(C)CCNC(=O)C(C(C)C)N(CCO)C(=O)CCCCCCCCCCCCCCCCC)C(C)C` (stereo not shown) [A1I4R22C18] reads 1.10E+05; that for `CCCCCCSSCCC(=O)N(CCO)C(C(=O)NCCN(C)CCNC(=O)C(C(C)C)N(CCO)C(=O)CCSSCCCCCC)C(C)C` (stereo not shown) [A1I4R22S11], 1.00E+03.
In the case of `CCCCCCCCSSCCC(=O)N(CCO)C(C(=O)NCCN(C)CCNC(=O)C(C(C)C)N(CCO)C(=O)CCSSCCCCCCCC)C(C)C` (stereo not shown) [A1I4R22S13], the “Fluorescence intensity of spleen” value is given as 5.90E+03.
The same measure, in the same setting: the result for `CCCCCCCCCCSSCCC(=O)N(CCO)C(C(=O)NCCN(C)CCNC(=O)C(C(C)C)N(CCO)C(=O)CCSSCCCCCCCCCC)C(C)C` (stereo not shown) [A1I4R22S15] reads 4.10E+03; that for `CCCCCCCCCCCCSSCCC(=O)N(CCO)C(C(=O)NCCN(C)CCNC(=O)C(C(C)C)N(CCO)C(=O)CCSSCCCCCCCCCCCC)C(C)C` (stereo not shown) [A1I4R22S17], 1.80E+04; that for `CCCCCCCCCCCCCCSSCCC(=O)N(CCO)C(C(=O)NCCN(C)CCNC(=O)C(C(C)C)N(CCO)C(=O)CCSSCCCCCCCCCCCCCC)C(C)C` (stereo not shown) [A1I4R22S19], 2.50E+04.
For `CCCCCCCC/C=C\CCCCCCCC(=O)N(CCCN(C)C)C(C(=O)NCCN(C)CCNC(=O)C(C(CC)CCCC)N(CCCN(C)C)C(=O)CCCCCCC/C=C\CCCCCCCC)C(CC)CCCC` (stereo not shown) [A4I4R2C18-1], the “Fluorescence intensity of spleen” value is 1.13E+03.
Same read-out and setting: the result for `CCCCC/C=C\C/C=C\CCCCCCCC(=O)N(CCCN(C)C)C(C(=O)NCCN(C)CCNC(=O)C(C(CC)CCCC)N(CCCN(C)C)C(=O)CCCCCCC/C=C\C/C=C\CCCCC)C(CC)CCCC` (stereo not shown) [A4I4R2C18-2] reads 1.86E+04.
As for `CCCCCCCCCCCCCCCCCC(=O)N(CCCN(C)C)C(C(=O)NCCN(C)CCNC(=O)C(C(CC)CCCC)N(CCCN(C)C)C(=O)CCCCCCCCCCCCCCCCC)C(CC)CCCC` (stereo not shown) [A4I4R2C18], the “Fluorescence intensity of spleen” value came out at 2.24E+03.
The same measure, in the same setting: for `CCCCCCCC/C=C\CCCCCCCC(=O)N(CCN1CCCCCC1)C(C(=O)NCCN(C)CCNC(=O)C(C(CC)CCCC)N(CCN1CCCCCC1)C(=O)CCCCCCC/C=C\CCCCCCCC)C(CC)CCCC` (stereo not shown) [A4I4R13C18-1] the value was 1.59E+03.

Staying with this assay, now noted: mRNA-loaded nanoparticles, compounds of Example 3; intravenous (tail vein), 5 μg Luciferase-mRNA, 6 hours.
Take `CCCCCCCC(=O)N(CCO)C(C(=O)NCCN(CCNC(=O)C(C(C)C)N(CCO)C(=O)CCCCCCC)CCNC(=O)C(C(C)C)N(CCO)C(=O)CCCCCCC)C(C)C` (stereo not shown) [A1I5R22C8]: the “Fluorescence intensity of spleen” value is recorded as 1.50E+05.
The same measure, in the same setting: the result for `CCCCCCCCCC(=O)N(CCO)C(C(=O)NCCN(CCNC(=O)C(C(C)C)N(CCO)C(=O)CCCCCCCCC)CCNC(=O)C(C(C)C)N(CCO)C(=O)CCCCCCCCC)C(C)C` (stereo not shown) [A1I5R22C10] reads 3.00E+05.
The same measure, in the same setting: the result for `CCCCCCCCCCCC(=O)N(CCO)C(C(=O)NCCN(CCNC(=O)C(C(C)C)N(CCO)C(=O)CCCCCCCCCCC)CCNC(=O)C(C(C)C)N(CCO)C(=O)CCCCCCCCCCC)C(C)C` (stereo not shown) [A1I5R22C12] reads 2.96E+06; that for `CCCCCCCCCCCCCCCC(=O)N(CCO)C(C(=O)NCCN(CCNC(=O)C(C(C)C)N(CCO)C(=O)CCCCCCCCCCCCCCC)CCNC(=O)C(C(C)C)N(CCO)C(=O)CCCCCCCCCCCCCCC)C(C)C` (stereo not shown) [A1I5R22C16], 4.10E+05; that for `CCCCC/C=C\C/C=C\CCCCCCCC(=O)N(CCO)C(C(=O)NCCN(CCNC(=O)C(C(C)C)N(CCO)C(=O)CCCCCCC/C=C\C/C=C\CCCCC)CCNC(=O)C(C(C)C)N(CCO)C(=O)CCCCCCC/C=C\C/C=C\CCCCC)C(C)C` (stereo not shown) [A1I5R22C18-2], 6.90E+05.
Turning to `CCCCCCCCCCCCCCCCCC(=O)N(CCO)C(C(=O)NCCN(CCNC(=O)C(C(C)C)N(CCO)C(=O)CCCCCCCCCCCCCCCCC)CCNC(=O)C(C(C)C)N(CCO)C(=O)CCCCCCCCCCCCCCCCC)C(C)C` (stereo not shown) [A1I5R22C18], the “Fluorescence intensity of spleen” value was 1.10E+05.
Take `CCCCCCSSCCC(=O)N(CCO)C(C(=O)NCCN(CCNC(=O)C(C(C)C)N(CCO)C(=O)CCSSCCCCCC)CCNC(=O)C(C(C)C)N(CCO)C(=O)CCSSCCCCCC)C(C)C` (stereo not shown) [A1I5R22S11]: the “Fluorescence intensity of spleen” value is 1.30E+05.
Still for that read-out and setting: the result for `CCCCCCCCCCCCSSCCC(=O)N(CCO)C(C(=O)NCCN(CCNC(=O)C(C(C)C)N(CCO)C(=O)CCSSCCCCCCCCCCCC)CCNC(=O)C(C(C)C)N(CCO)C(=O)CCSSCCCCCCCCCCCC)C(C)C` (stereo not shown) [A1I5R22S17] reads 6.40E+05; that for `CCCCCCCCCCCCCCSSCCC(=O)N(CCO)C(C(=O)NCCN(CCNC(=O)C(C(C)C)N(CCO)C(=O)CCSSCCCCCCCCCCCCCC)CCNC(=O)C(C(C)C)N(CCO)C(=O)CCSSCCCCCCCCCCCCCC)C(C)C` (stereo not shown) [A1I5R22S19], 1.80E+06; that for `CCCCCCCCCCCCN(C(=O)CO)C(C(=O)NCCN(CCNC(=O)C(C(C)C)N(CCCCCCCCCCCC)C(=O)CO)CCNC(=O)C(C(C)C)N(CCCCCCCCCCCC)C(=O)CO)C(C)C` (stereo not shown) [A1I5R50C21], 3.60E+06.
